Tests used:
Test in all cases: KINOMEscan competition binding
Conditions in all cases: compound 10.0 µM
[1] = test system: PIK3CA (human), P42336 [C420R]
[2] = target: PIP4K2C (human) (UniProt Q8TBX8)
[3] = target: GRK4 (human) (UniProt P32298)
[4] = target: MAP3K13 (human) (UniProt O43283)
[5] = test system: CPK1 (P.falciparum)
[6] = target: PKN3 (M.tuberculosis) (UniProt Q6P5Z2)
[7] = target: DYRK2 (human) (UniProt Q92630)
[8] = target: GRK1 (human) (UniProt Q15835)
[9] = target: NEK4 (human) (UniProt P51957)
[10] = target: MET (human) (UniProt P08581)
[11] = target: TBK1 (human) (UniProt Q9UHD2)
[12] = target: MATK (human) (UniProt P42679)
[13] = test system: EGFR (human), P00533 [G719S]
[14] = target: CDK4 CCND1 (human) (UniProt P11802+P24385)
[15] = target: CDKL3 (human) (UniProt Q8IVW4)
[16] = target: HUNK (human) (UniProt P57058)
Sequence of HUNK (human) (P57058 whole entry, looked up): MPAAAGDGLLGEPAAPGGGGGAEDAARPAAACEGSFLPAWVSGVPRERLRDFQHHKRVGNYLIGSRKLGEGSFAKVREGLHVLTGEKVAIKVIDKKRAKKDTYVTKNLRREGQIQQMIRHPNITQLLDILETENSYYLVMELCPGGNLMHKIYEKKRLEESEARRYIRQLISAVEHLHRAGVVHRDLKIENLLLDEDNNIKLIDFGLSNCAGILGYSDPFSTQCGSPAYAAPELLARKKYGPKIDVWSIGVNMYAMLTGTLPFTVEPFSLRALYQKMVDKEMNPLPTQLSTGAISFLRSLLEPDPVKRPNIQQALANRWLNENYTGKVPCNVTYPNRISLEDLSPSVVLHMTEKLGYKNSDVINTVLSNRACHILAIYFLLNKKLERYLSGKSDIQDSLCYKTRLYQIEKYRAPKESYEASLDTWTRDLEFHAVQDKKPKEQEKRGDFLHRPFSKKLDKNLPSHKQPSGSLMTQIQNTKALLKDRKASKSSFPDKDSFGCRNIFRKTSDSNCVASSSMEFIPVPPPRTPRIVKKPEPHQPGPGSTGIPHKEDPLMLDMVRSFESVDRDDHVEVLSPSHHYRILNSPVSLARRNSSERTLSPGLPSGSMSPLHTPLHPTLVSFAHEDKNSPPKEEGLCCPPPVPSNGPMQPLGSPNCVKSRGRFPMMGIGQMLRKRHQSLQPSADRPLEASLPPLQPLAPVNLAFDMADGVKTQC

[17] = target: SNRK (human) (UniProt Q9NRH2)
[18] = target: CDKL5 (human) (UniProt O76039)
[19] = target: EPHB6 (human) (UniProt O15197)
[20] = target: ROCK1 (human) (UniProt Q13464)
[21] = test system: EGFR (human), P00533 [P753S; 747-752 del]
[22] = test system: ABL1 (human), P00519 [E255K]
[23] = target: YSK4 (human) (UniProt Q56UN5)
[24] = target: NEK3 (human) (UniProt P51956)
[25] = target: MAK (human) (UniProt P20794)
Sequence of MAK (human) (P20794 whole entry, looked up): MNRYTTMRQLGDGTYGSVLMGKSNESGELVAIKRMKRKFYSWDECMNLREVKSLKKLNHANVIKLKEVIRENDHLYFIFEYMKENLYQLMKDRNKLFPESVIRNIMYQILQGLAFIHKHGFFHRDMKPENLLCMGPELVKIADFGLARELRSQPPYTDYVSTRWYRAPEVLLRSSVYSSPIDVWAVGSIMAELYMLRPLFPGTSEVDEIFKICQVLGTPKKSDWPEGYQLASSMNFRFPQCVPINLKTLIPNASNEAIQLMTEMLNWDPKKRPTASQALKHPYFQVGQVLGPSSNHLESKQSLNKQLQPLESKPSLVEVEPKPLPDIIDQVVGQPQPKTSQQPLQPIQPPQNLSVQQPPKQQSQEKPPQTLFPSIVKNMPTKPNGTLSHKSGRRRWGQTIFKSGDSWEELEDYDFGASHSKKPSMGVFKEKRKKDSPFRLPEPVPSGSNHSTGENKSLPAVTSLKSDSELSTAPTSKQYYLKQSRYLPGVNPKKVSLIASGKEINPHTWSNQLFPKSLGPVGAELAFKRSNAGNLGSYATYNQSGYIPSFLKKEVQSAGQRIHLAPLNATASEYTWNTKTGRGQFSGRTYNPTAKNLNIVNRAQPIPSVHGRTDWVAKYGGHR

[26] = target: STK32A (human) (UniProt Q8WU08)
[27] = target: ERN1 (human) (UniProt O75460)
Sequence of ERN1 (human) (O75460 whole entry, looked up): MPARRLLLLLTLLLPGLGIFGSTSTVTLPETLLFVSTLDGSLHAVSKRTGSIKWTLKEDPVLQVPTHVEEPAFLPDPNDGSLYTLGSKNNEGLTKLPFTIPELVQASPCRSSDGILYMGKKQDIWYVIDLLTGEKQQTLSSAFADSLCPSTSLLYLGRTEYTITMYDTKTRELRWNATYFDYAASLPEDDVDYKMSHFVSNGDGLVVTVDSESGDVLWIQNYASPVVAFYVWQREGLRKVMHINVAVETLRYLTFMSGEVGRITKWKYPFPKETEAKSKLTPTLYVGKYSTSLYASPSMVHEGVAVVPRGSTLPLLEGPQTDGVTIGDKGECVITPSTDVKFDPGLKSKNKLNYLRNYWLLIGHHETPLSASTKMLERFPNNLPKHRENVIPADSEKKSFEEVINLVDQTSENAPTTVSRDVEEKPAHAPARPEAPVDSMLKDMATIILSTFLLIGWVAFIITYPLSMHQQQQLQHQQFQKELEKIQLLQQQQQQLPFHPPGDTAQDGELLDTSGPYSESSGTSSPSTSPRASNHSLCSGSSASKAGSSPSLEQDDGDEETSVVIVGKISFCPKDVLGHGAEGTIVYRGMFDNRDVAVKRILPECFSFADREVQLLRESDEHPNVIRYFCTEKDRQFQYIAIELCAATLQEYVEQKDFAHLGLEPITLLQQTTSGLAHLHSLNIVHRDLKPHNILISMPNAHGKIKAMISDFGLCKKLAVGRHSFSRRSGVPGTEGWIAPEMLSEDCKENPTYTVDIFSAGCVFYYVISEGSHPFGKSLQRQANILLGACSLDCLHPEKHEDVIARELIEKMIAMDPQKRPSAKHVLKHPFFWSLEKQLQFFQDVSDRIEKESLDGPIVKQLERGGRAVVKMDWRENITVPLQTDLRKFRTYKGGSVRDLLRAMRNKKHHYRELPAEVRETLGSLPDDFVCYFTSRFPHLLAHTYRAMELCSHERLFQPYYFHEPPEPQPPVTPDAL

[28] = target: TIE1 (human) (UniProt P35590)
[29] = target: ERBB3 (human) (UniProt P21860)
[30] = target: TRPM6 (human) (UniProt Q9BX84)
[31] = target: CSNK1A1 (human) (UniProt P48729)
Sequence of CSNK1A1 (human) (P48729 whole entry, looked up): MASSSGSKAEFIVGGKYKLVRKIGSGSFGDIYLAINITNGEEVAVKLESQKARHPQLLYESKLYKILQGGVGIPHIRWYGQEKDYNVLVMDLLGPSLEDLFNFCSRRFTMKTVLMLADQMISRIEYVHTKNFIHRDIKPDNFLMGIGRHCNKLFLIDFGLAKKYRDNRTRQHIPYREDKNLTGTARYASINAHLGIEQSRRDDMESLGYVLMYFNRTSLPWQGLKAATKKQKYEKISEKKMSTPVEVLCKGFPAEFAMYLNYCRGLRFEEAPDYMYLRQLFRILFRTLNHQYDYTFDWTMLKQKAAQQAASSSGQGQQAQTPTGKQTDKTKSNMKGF

[32] = target: PIK3CG (human) (UniProt P48736)
[33] = target: IRAK4 (human) (UniProt Q9NWZ3)
[34] = target: MAP2K7 (human) (UniProt O14733)
[35] = target: MAP3K15 (human) (UniProt Q6ZN16)
Sequence of MAP3K15 (human) (Q6ZN16 whole entry, looked up): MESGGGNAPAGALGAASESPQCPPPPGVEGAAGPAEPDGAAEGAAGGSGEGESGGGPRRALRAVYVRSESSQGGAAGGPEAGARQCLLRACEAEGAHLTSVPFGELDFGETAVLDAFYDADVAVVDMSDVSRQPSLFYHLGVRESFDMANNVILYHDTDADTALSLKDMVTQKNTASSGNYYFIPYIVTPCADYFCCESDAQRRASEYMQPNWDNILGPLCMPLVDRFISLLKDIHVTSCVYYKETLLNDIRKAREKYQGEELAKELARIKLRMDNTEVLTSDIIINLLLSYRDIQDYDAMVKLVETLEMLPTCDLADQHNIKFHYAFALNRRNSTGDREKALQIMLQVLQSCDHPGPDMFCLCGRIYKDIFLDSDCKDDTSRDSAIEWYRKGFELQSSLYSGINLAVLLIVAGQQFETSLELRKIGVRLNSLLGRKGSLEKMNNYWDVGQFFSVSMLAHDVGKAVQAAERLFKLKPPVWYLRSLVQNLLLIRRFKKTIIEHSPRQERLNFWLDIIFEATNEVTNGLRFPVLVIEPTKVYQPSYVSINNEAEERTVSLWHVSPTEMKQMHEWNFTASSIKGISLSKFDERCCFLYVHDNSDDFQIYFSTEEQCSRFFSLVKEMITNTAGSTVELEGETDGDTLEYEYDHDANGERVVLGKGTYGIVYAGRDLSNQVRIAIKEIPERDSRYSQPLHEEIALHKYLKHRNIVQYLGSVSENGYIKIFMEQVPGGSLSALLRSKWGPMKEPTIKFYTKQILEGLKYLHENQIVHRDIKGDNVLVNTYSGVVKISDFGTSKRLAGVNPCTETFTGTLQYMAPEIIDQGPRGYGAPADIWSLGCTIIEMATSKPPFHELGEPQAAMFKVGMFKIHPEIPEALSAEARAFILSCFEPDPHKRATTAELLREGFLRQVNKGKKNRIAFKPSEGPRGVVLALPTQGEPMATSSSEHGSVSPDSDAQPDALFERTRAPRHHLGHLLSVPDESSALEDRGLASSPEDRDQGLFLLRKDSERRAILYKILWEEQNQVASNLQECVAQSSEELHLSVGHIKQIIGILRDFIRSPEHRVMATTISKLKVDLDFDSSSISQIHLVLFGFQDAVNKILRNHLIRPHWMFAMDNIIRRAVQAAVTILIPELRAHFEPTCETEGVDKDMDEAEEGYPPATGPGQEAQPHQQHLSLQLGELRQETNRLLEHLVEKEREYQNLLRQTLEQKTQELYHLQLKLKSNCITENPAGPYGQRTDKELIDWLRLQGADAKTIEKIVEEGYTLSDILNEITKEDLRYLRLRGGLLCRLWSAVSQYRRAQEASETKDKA

[36] = test system: PIK3CA (human), P42336 [E545K]
Sequence of PIK3CA (human), P42336 [E545K] (P42336 whole entry E545K, looked up): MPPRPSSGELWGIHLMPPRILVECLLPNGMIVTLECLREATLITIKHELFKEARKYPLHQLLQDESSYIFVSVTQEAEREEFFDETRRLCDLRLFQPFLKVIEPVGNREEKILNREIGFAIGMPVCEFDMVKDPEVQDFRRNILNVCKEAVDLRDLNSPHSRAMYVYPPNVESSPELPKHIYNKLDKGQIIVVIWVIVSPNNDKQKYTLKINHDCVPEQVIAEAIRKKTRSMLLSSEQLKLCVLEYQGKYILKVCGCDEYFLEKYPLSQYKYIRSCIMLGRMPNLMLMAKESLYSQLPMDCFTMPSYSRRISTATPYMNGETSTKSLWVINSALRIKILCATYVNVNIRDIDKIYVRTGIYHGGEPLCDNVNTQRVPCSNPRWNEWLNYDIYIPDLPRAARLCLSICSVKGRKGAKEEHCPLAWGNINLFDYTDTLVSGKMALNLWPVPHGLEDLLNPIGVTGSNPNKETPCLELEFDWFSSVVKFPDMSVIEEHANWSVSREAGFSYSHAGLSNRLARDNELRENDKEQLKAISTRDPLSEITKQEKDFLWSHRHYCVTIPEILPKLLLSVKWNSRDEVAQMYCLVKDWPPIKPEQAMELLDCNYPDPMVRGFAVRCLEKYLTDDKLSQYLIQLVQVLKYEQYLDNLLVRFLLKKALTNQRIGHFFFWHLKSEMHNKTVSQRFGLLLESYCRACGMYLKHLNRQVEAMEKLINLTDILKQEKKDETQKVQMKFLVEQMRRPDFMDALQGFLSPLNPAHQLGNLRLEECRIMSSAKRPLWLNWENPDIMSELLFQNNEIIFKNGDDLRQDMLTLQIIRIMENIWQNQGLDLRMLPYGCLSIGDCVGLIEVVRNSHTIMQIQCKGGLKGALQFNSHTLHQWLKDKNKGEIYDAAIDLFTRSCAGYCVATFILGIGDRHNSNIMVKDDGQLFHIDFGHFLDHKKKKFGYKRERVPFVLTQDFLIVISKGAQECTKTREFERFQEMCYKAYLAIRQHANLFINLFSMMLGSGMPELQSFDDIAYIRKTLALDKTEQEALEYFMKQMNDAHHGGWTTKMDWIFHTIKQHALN

[37] = target: HIPK4 (human) (UniProt Q8NE63)
[38] = target: VRK2 (human) (UniProt Q86Y07)
[39] = test system: KIT (human), P10721 [V559D/T670I]
[40] = target: PLK2 (human) (UniProt Q9NYY3)

Sequence of PIK3CA (human), P42336 [C420R] (P42336 whole entry C420R, looked up): as the sequence (P42336 whole entry E545K, looked up) above, with C420R, K545E counted along it

Row | Structure (SMILES) | kinase still bound, per cent of control [1] [%] | kinase still bound, per cent of control [2] [%] | kinase still bound, per cent of control [3] [%] | kinase still bound, per cent of control [4] [%] | kinase still bound, per cent of control [5] [%] | kinase still bound, per cent of control [6] [%] | kinase still bound, per cent of control [7] [%] | kinase still bound, per cent of control [8] [%] | kinase still bound, per cent of control [9] [%] | kinase still bound, per cent of control [10] [%] | kinase still bound, per cent of control [11] [%] | kinase still bound, per cent of control [12] [%] | kinase still bound, per cent of control [13] [%] | kinase still bound, per cent of control [14] [%] | kinase still bound, per cent of control [15] [%] | kinase still bound, per cent of control [16] [%] | kinase still bound, per cent of control [17] [%] | kinase still bound, per cent of control [18] [%] | kinase still bound, per cent of control [19] [%] | kinase still bound, per cent of control [20] [%] | further results
1 | CN(C)C/C=C/C(=O)Nc1cccc(Nc2ncc3c(n2)N(C)c2ccccc2C(=O)N3C)c1 | 72 | 6 | 66 | 40 | 74 | 42 | 47 | 100 | 87 | 48 | 58 | 69 | 67 | 78 | 100 | 47 | 58 | 100 | 4.3 | 49 | kinase still bound, per cent of control [21]: 100%; kinase still bound, per cent of control [22]: 0.1%; kinase still bound, per cent of control [23]: 6.2%; kinase still bound, per cent of control [24]: 58%; kinase still bound, per cent of control [25]: 100%; kinase still bound, per cent of control [26]: 100%; kinase still bound, per cent of control [27]: 69%; kinase still bound, per cent of control [28]: 5.4%; kinase still bound, per cent of control [29]: 89%; kinase still bound, per cent of control [30]: 91%; kinase still bound, per cent of control [31]: 26%; kinase still bound, per cent of control [32]: 0%; kinase still bound, per cent of control [33]: 73%; kinase still bound, per cent of control [34]: 97%; kinase still bound, per cent of control [35]: 69%; kinase still bound, per cent of control [36]: 100%; kinase still bound, per cent of control [37]: 76%; kinase still bound, per cent of control [38]: 73%; kinase still bound, per cent of control [39]: 65%; kinase still bound, per cent of control [40]: 37%
2 | Cc1ccc(NC(=O)c2cccc(C(C)(C)C#N)c2)cc1Nc1ccc2ncn(C)c(=O)c2c1 | 100 | 100 | 100 | 100 | 0.75 | 100 | 100 | 100 | 89 | 89 | 100 | 100 | 37 | 61 | 100 | 100 | 100 | 93 | 2.4 | 92 | kinase still bound, per cent of control [21]: 19%; kinase still bound, per cent of control [22]: 3.4%; kinase still bound, per cent of control [23]: 0.85%; kinase still bound, per cent of control [24]: 57%; kinase still bound, per cent of control [25]: 100%; kinase still bound, per cent of control [26]: 100%; kinase still bound, per cent of control [27]: 86%; kinase still bound, per cent of control [28]: 11%; kinase still bound, per cent of control [29]: 100%; kinase still bound, per cent of control [30]: 100%; kinase still bound, per cent of control [31]: 100%; kinase still bound, per cent of control [32]: 99%; kinase still bound, per cent of control [33]: 83%; kinase still bound, per cent of control [34]: 93%; kinase still bound, per cent of control [35]: 100%; kinase still bound, per cent of control [36]: 100%; kinase still bound, per cent of control [37]: 92%; kinase still bound, per cent of control [38]: 100%; kinase still bound, per cent of control [39]: 0.35%; kinase still bound, per cent of control [40]: 99%

From the kinase profiling compilation of Christmann-Franck et al. (2016)
